Measured values as given in patent EP0358766A1, “METHOD OF STERILIZING PLANT ANTHERS” (VSESOJUZNY NAUCHNO-ISSLEDOVATELSKY INST. SELSKOKHOZYAISTV. …, priority 1988, dated 1989).

Legend:
[1] = test system: Sommerweizens Sorte Moskowskaya 35; test: Field test of gametocidal activity, spring wheat Moskowskaya 35; assay type: in vivo, Weizen; details: for Kornzahl der Ähre bei freier Bestäubung / Kornzahl der Ähre im Isolator / Prozentsatz des Ansetzens von Samen bei freier Bestäubung: Moskowskaya 35, period V, 1% aqueous emulsion, 6 kg/ha in 600 l water; for Prozentsatz des Ansetzens von Samen bei freier Bestäubung: control = 100; for pest or weed control at 6000 g/ha: read-out: Prozentsatz der Sterilität
[2] = test system: Hirse Sorte Mironovskoye 94; test: Field test of gametocidal activity, millet Mironovskoye 94; assay type: in vivo; details: for Kornzahl der Rispe bei freier Bestäubung / Kornzahl der Rispe im Isolator / Prozentsatz des Ansetzens von Samen bei freier Bestäubung: Mironovskoye 94, period V, 1% aqueous emulsion, 6 kg/ha in 600 l water; for Prozentsatz des Ansetzens von Samen bei freier Bestäubung: control = 100; for pest or weed control at 6000 g/ha: read-out: Prozentsatz der Sterilität
Description: (§1) Die gametozide Aktivität der erfindungsgemäßen Sterilisationsmittel war in Feldversuchen in verschiedenen bodenklimatischen Zonen mit Teilstücken von 10 m^2 Größe in dreibis viermaliger Wiederholung festgestellt. Jedes Sterilisationsmittel wurde mindenstens 5 Jahre lang geprüft.
(§2) Die Entwicklung der Perioden der Organogenese wird zytologisch überwacht. Die Behandlung von Pflanzen mit dem Sterilisationsmittel erfolgt am Anfang der fünften Periode der Organogenese nach Kupermann.
(§3) Mit dem Ährenschieben verwirklicht man die Isolierung von Hauptähren und anderen Stockwerken in Pergametbeuteln. Bei Weizen und Tritikale werden Einzelisolatoren benutzt. Bei Roggen schließt man je 1 Ähre von […] verschiedenen nebeneinander befindlichen Pflanzen unter einen gemeinsamen Isolator ein. Bei Hirse wird jede Rispe getrennt isoliert. Der Sterilitätsprozentsatz (X) für Weizen, Roggen, Tritikale und Hirse wird nach der Formel [formula] ermittelt.
(§4) Die Kornzahl in nicht isolierten Ähren von Kontrollpflanzen wird bedingt für 100 % Ansetzen bei freier Bestäubung angenommen.
(§5) Um zuverlässige Angaben zu erhalten, verwendet man 20 bis 25 Isolatoren je Wiederholung für Weizen und Tritikale, 10 bis 15 Isolatoren jeder Wiederholung für Roggen und Hirse.
Pflanzen der Hirse Sorte Mironovskoye 94 werden in der V.Periode der Organogenese mit einer 1%igen wäßrigen Emulsion von 1,1,3-Tribrompropan, 1,2,3-Tribrompropan, 1,2-Dibrompropan, 1,2-Dibrom-3-chlorpropan, 1,3-Dibrompropan, 1,1,1,3-Tetrabromheptan, 1,1,3-Tribromheptan, 1,2-Dibromheptan behandelt. Die Emulsion enthält 0,5 Masse% C12-C14--Kalziumalkylbenzolaulfonat und 0,01 Masse% Dimethylsulfoxid als Adjuvans. Der Verbrauch an Präparat beträgt 6 kg/ha bei 600 1 Wasserdurchsatz. Die Prüfergebnisse sind in der Tabelle 15 angegeben. Die gleichen Ergebnisse sind bei der Behandlung der Hirse Sorte Mironovskoye 94 in der VI. Periode der Organogenese erhalten.

[3] = test system: Winterweizens Sorte Mironowskaya 808; test: Field test of gametocidal activity (anther sterilisation), winter wheat Mironowskaya 808; assay type: in vivo, Weizen; details: for Kornzahl der Ähre bei freier Bestäubung / Kornzahl der Ähre im Isolator / Prozentsatz des Ansetzens von Samen bei freier Bestäubung: Mironowskaya 808, period V of organogenesis, 1% aqueous emulsion, 10 kg/ha; for Prozentsatz des Ansetzens von Samen bei freier Bestäubung: control = 100; for pest or weed control at 1 %, 10000 g/ha: read-out: Prozentsatz der Sterilität %
[4] = test system: diploidem Roggen Chulpan; test: Field test of gametocidal activity, diploid rye Chulpan; assay type: in vivo; details: for Kornzahl der Ähre bei freier Bestäubung / Kornzahl der Ähre im Isolator / Prozentsatz des Ansetzens von Samen bei freier Bestäubung: Chulpan, period V, 1% aqueous emulsion, 10 kg/ha; for Prozentsatz des Ansetzens von Samen bei freier Bestäubung: control = 100; for pest or weed control at 10000 g/ha: read-out: Prozentsatz der Sterilität
[5] = test system: diploidem Roggen Kharkovskaya 55; test: Field test of gametocidal activity, diploid rye Kharkovskaya 55; assay type: in vivo; details: for Kornzahl der Ähre bei freier Bestäubung / Kornzahl der Ähre im Isolator / Prozentsatz des Ansetzens von Samen bei freier Bestäubung: Kharkovskaya 55, period V, 1% aqueous emulsion, 6 kg/ha in 600 l water; for Prozentsatz des Ansetzens von Samen bei freier Bestäubung: control = 100; for pest or weed control at 6000 g/ha: read-out: Prozentsatz der Sterilität
Description: as §1, §2, §3, §4, §5
Pflanzen von diploidem Roggen Kharkovskaya 55 werden in der V. Periode der Organogenese mit einer l%igen wäßrigen Emulsion von 1,1,3-Tribrompropan, 1,2,3-Tribrompropan, 1,2-Dibrompropan, 1,1,3-Tribrom-3-chlorpropan, 1,2--Dibrom-3-chlorpropan, 1,1,1,3-Tetrabromheptan, 1,1,3-Tribromheptan bzw. 1,2-Dibromheptan behandelt. Die Emulsion enthält 0,5 Masse% C12-C14-Kalziumalkylbenzolsulfonat und 0,01 Masse% Dimethylformamid als Adjuvans. Der Verbrauch an Präparat beträgt 6 kg/ha bei 600 1 Wasserdurchsatz. Die Prüfergebnisse sind in der Tabelle 13 angegeben. Die gleichen Ergebnisse sind bei der Behandlung von diploidem Roggen Kharkovskaya 55 in der VI. Periode der Organogenese erhalten.

## BrCC(Br)CBr [Beispiel 4, 1,2,3-Tribrompropan]
[1]
  Kornzahl der Ähre bei freier Bestäubung: 34,1
  Kornzahl der Ähre im Isolator: 0,0
  Prozentsatz des Ansetzens von Samen bei freier Bestäubung: 89,3%
  pest or weed control at 6000 g/ha: 100%
[2]
  Kornzahl der Rispe bei freier Bestäubung: 147,5
  Kornzahl der Rispe im Isolator: 0,0
  Prozentsatz des Ansetzens von Samen bei freier Bestäubung: 60,2%
  pest or weed control at 6000 g/ha: 100%
[3]
  Kornzahl der Ähre bei freier Bestäubung: 34,8
  Kornzahl der Ähre im Isolator: 0,0
  Prozentsatz des Ansetzens von Samen bei freier Bestäubung: 93,3%
  pest or weed control at 1 %, 10000 g/ha: 100%
[4]
  Kornzahl der Ähre bei freier Bestäubung: 45,0
  Kornzahl der Ähre im Isolator: 0,0
  Prozentsatz des Ansetzens von Samen bei freier Bestäubung: 89,8%
  pest or weed control at 10000 g/ha: 100%
[5]
  Kornzahl der Ähre bei freier Bestäubung: 40,5
  Kornzahl der Ähre im Isolator: 0,6
  Prozentsatz des Ansetzens von Samen bei freier Bestäubung: 89,8%
  pest or weed control at 6000 g/ha: 98.6%

## CCCCC(Br)CC(Br)(Br)Br (stereo not shown) [Beispiel 9, 1,1,1,3-Tetrabromheptan]
[1]
  Kornzahl der Ähre bei freier Bestäubung: 35,8
  Kornzahl der Ähre im Isolator: 0,1
  Prozentsatz des Ansetzens von Samen bei freier Bestäubung: 93,7%
  pest or weed control at 6000 g/ha: 99.9%
[2]
  Kornzahl der Rispe bei freier Bestäubung: 200,7
  Kornzahl der Rispe im Isolator: 0,0
  Prozentsatz des Ansetzens von Samen bei freier Bestäubung: 81,7%
  pest or weed control at 6000 g/ha: 100%
[3]
  Kornzahl der Ähre bei freier Bestäubung: 31,4
  Kornzahl der Ähre im Isolator: 0,2
  Prozentsatz des Ansetzens von Samen bei freier Bestäubung: 75,5%
  pest or weed control at 1 %, 10000 g/ha: 99.5%
[4]
  Kornzahl der Ähre bei freier Bestäubung: 48,9
  Kornzahl der Ähre im Isolator: 0,2
  Prozentsatz des Ansetzens von Samen bei freier Bestäubung: 97,6%
  pest or weed control at 10000 g/ha: 99.6%
[5]
  Kornzahl der Ähre bei freier Bestäubung: 37,1
  Kornzahl der Ähre im Isolator: 0,0
  Prozentsatz des Ansetzens von Samen bei freier Bestäubung: 100,0%
  pest or weed control at 6000 g/ha: 100%
